# Measured values as given in PubChem BioAssay AID1963846 (Molecular Pharmacology Branch, DTP, NCI, 2024).
# pIC50: −log10 of the molar value.
# System: 454973-116-R2-J3-PDC complex spheroid viability
# Assay: Anticancer human tumor 454973-116-R2-J3-PDC patient-derived pancreatic carcinoma cell line growth inhibition [POLQ]
# Conditions: for pIC50: curve of first compound; for viability, T/C: stronger effect = lower value
# Outline: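 Patient-derived tumour cells were co-cultured with HUVEC and mesenchymal stem cells as multicellular spheroids at 37 °C. They were treated with POLQ inhibitors (novobiocin, ART-558, RP6685) alone or combined with other agents. Top concentrations were at or near clinical Cmax (otherwise 10 microM; SN-38 at 1 microM), decreasing in half-log steps.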
# [1] = second compound 0.0316 µM, first compound 0.0316 µM
# [2] = second compound 0.0316 µM, first compound 0.1 µM
# [3] = second compound 0.0316 µM, first compound 0.316 µM
# [4] = second compound 0.0316 µM, first compound 1 µM
# [5] = second compound 0.0316 µM, first compound 3.16 µM
# [6] = second compound 0.0316 µM, first compound 10 µM
# [7] = second compound 0.1 µM, first compound 0.0316 µM
# [8] = second compound 0.1 µM, first compound 0.1 µM
# [9] = second compound 0.1 µM, first compound 0.316 µM
# [10] = second compound 0.1 µM, first compound 1 µM
# [11] = second compound 0.1 µM, first compound 3.16 µM
# [12] = second compound 0.1 µM, first compound 10 µM
# [13] = second compound 0.316 µM, first compound 0.0316 µM
# [14] = second compound 0.316 µM, first compound 0.1 µM
# [15] = second compound 0.316 µM, first compound 0.316 µM
# [16] = second compound 0.316 µM, first compound 1 µM
# [17] = second compound 0.316 µM, first compound 3.16 µM
# [18] = second compound 0.316 µM, first compound 10 µM
# [19] = second compound 1 µM, first compound 0.0316 µM
# [20] = second compound 1 µM, first compound 0.1 µM
# [21] = second compound 1 µM, first compound 0.316 µM
# [22] = second compound 1 µM, first compound 1 µM
# [23] = second compound 1 µM, first compound 3.16 µM
# [24] = second compound 1 µM, first compound 10 µM
# [25] = second compound 3.16 µM, first compound 0.0316 µM
# [26] = second compound 3.16 µM, first compound 0.1 µM
# [27] = second compound 3.16 µM, first compound 0.316 µM
# [28] = second compound 3.16 µM, first compound 1 µM
# [29] = second compound 3.16 µM, first compound 3.16 µM
# [30] = second compound 3.16 µM, first compound 10 µM
# [31] = second compound 10 µM, first compound 0.0316 µM
# [32] = second compound 10 µM, first compound 0.1 µM
# [33] = second compound 10 µM, first compound 0.316 µM
# [34] = second compound 10 µM, first compound 1 µM
# [35] = second compound 10 µM, first compound 3.16 µM
# [36] = second compound 10 µM, first compound 10 µM
# 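Further: spheroids exposed to drugs for seven days before measurement.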
# 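Wherever viability, T/C is given: percent viability relative to DMSO vehicle control wells taken as 100%.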
smiles,measurement,setting,value
COc1cc2cc(C(=O)CCC(=O)O)sc2cc1OC + Nc1ccc(C#CCN(C(=O)Cc2ncc(C(F)(F)F)cc2C(F)(F)F)c2ccc(F)cc2)nn1,pIC50,second compound 0.0316 µM,< 5.00
same,pIC50,second compound 0.1 µM,< 5.00
same,pIC50,second compound 0.316 µM,< 5.00
same,pIC50,second compound 1 µM,< 5.00
same,pIC50,second compound 3.16 µM,< 5.00
same,pIC50,second compound 10 µM,< 5.00
same,"viability, T/C",[1],96.7%
same,"viability, T/C",[2],101%
same,"viability, T/C",[3],112%
same,"viability, T/C",[4],101%
same,"viability, T/C",[5],107%
same,"viability, T/C",[6],98.9%
same,"viability, T/C",[7],98.2%
same,"viability, T/C",[8],103%
same,"viability, T/C",[9],100%
same,"viability, T/C",[10],105%
same,"viability, T/C",[11],107%
same,"viability, T/C",[12],104%
same,"viability, T/C",[13],93.8%
same,"viability, T/C",[14],101%
same,"viability, T/C",[15],107%
same,"viability, T/C",[16],104%
same,"viability, T/C",[17],111%
same,"viability, T/C",[18],94.3%
same,"viability, T/C",[19],110%
same,"viability, T/C",[20],103%
same,"viability, T/C",[21],106%
same,"viability, T/C",[22],122%
same,"viability, T/C",[23],108%
same,"viability, T/C",[24],99.2%
same,"viability, T/C",[25],118%
same,"viability, T/C",[26],110%
same,"viability, T/C",[27],113%
same,"viability, T/C",[28],109%
same,"viability, T/C",[29],116%
same,"viability, T/C",[30],107%
same,"viability, T/C",[31],115%
same,"viability, T/C",[32],114%
same,"viability, T/C",[33],118%
same,"viability, T/C",[34],117%
same,"viability, T/C",[35],119%
same,"viability, T/C",[36],105%
C=CC(=O)N1CCN(c2nc(=O)n(-c3c(C)ccnc3C(C)C)c3nc(-c4c(O)cccc4F)c(F)cc23)C(C)C1 (centres undefined) + Nc1ccc(C#CCN(C(=O)Cc2ncc(C(F)(F)F)cc2C(F)(F)F)c2ccc(F)cc2)nn1,pIC50,second compound 0.0316 µM,< 5.00
same,pIC50,second compound 0.1 µM,< 5.00
same,pIC50,second compound 0.316 µM,< 5.00
same,pIC50,second compound 1 µM,< 5.00
same,pIC50,second compound 3.16 µM,< 5.00
same,pIC50,second compound 10 µM,< 5.00
same,"viability, T/C",[1],103%
same,"viability, T/C",[2],106%
same,"viability, T/C",[3],110%
same,"viability, T/C",[4],111%
same,"viability, T/C",[5],113%
same,"viability, T/C",[6],113%
same,"viability, T/C",[7],103%
same,"viability, T/C",[8],97.1%
same,"viability, T/C",[9],110%
same,"viability, T/C",[10],114%
same,"viability, T/C",[11],111%
same,"viability, T/C",[12],117%
same,"viability, T/C",[13],102%
same,"viability, T/C",[14],106%
same,"viability, T/C",[15],107%
same,"viability, T/C",[16],106%
same,"viability, T/C",[17],124%
same,"viability, T/C",[18],116%
same,"viability, T/C",[19],102%
same,"viability, T/C",[20],110%
same,"viability, T/C",[21],109%
same,"viability, T/C",[22],123%
same,"viability, T/C",[23],121%
same,"viability, T/C",[24],114%
same,"viability, T/C",[25],111%
same,"viability, T/C",[26],118%
same,"viability, T/C",[27],120%
same,"viability, T/C",[28],123%
same,"viability, T/C",[29],125%
same,"viability, T/C",[30],114%
same,"viability, T/C",[31],118%
same,"viability, T/C",[32],113%
same,"viability, T/C",[33],116%
same,"viability, T/C",[34],123%
same,"viability, T/C",[35],137%
same,"viability, T/C",[36],116%
